Measurements taken from patent publication US20220273660A1, “MEK INHIBITOR FOR TREATMENT OF STROKE” (EDVINCE AB, priority 2019, published 2022).
Entries after “also recorded” stand apart in the source; their conditions may differ.

How the values were obtained:
[1] = test system: rat middle cerebral arteries; assay: Contraction of middle cerebral arteries 48 h after tMCAO, wire myograph; settings: for agonist-mediated contraction (% of maximum potassium-mediated contraction): occluded MCAs, 48 h after tMCAO, mean±SD
Experimental: Mean arterial blood pressure, pCO2, pO2, pH and plasma glucose were measured prior to the occlusion through an arterial tail catheter (Radiometer; LabChart). A rectal thermometer connected to a homoeothermic blanket was used to maintain body temperature at +37° C. during the surgical procedure. An incision was made in the midline of the neck exposing the right common, internal and external carotid arteries. The common and external carotid arteries were permanently ligated by sutures and an incision was made in the common carotid artery. A laser Doppler probe (Perimed, Järfälla, Sweden) was fixed to the thinned skull in the area corresponding to the area supplied by the middle cerebral artery (1 mm posterior to bregma and 6 mm to the right from the midline). A silicone, rubber-coated monofilament (Doccol Corporation, Redlands, Calif., USA) was inserted through the incision until the tip reached the entrance of the right middle cerebral artery (MCA). The occlusion was confirmed by an abrupt reduction of cortical blood flow that was observed using laser Doppler monitoring. After securing the filament, the skin was sutured and anesthesia was discontinued. After two hours of occlusion, the rats were briefly re-anesthetized to remove the filament and allow reperfusion. […] The animals were allowed to recover 48 hours after surgery with free access to food and water before they were anesthetized with CO2 and decapitated. The brains were removed and immediately chilled in ice-cold bicarbonate buffer solution (for composition, see Drugs, Chemicals and Solutions). Right (occluded) and left (non-occluded) middle cerebral arteries were dissected free from adhering tissue and used for myograph studies.
Contractile properties of middle cerebral arteries were examined using a wire Mulvany-Halpern myograph that records isometric tension (Danish Myo Technology A/S, Aarhus, Denmark). Arteries were cut into cylindrical segments (2 mm), and mounted in the myographs by two parallel 40 μm wires inserted through the lumen. The myograph baths contained 5 ml +37° C. bicarbonate buffer solution (for composition, see Drugs, Chemicals and Solutions) continuously aerated with 5% carbon dioxide in oxygen resulting in pH 7.4. […] The other wire was connected to a force displacement transducer attached to an analogue-digital converter (AD Instruments, Chalgrove, UK). The results were recorded on a computer using a Power Lab unit (AD instruments) and the software LabChart (ADInstruments). After the normalization procedure, the arteries were allowed to equilibrate at this tension for 20 min.
The maximum potassium-mediated contraction was used as a reference value (=100%) for contractile capacity. To eliminate endothelial influence, the production of nitric oxide and prostaglandins was blocked with 100 μM L-NG-nitroarginine methyl ester (L-NAME) and 10 μM indomethacin, respectively, which were present in the tissue baths throughout the experiments on the arteries from the in vivo stroke model.
Receptors for 5-hydroxytryptamine receptors (5-HT) were evaluated by adding 5-carboxamidotryptamine (5-CT, a non-selective 5-HT1 agonist) in concentrations ranging from 10^−11 to 10^−5M (Hansen-Schwartz). The angiotensin type 1 (AT1) receptor was evaluated by cumulative applications of Angiotensin II in concentrations ranging from 10^−12 to 10^−6 M. 30 minutes prior to the experiment, the AT2 receptor antagonist PD123319 was added to eliminate any AT2 receptor-mediated effects. […]

[2] = test system: rat basilar arteries (contractile ETB receptors); assay: 48 h organ culture of basilar artery, S6c (ETB agonist)-induced contraction in wire myograph; assay type: cell-based; settings: for inhibition of S6c-induced contraction (initial screening groups): 1 μM inhibitor, S6c contraction relative to 60 mM K+; for inhibition of S6c-induced contraction (initial screening groups) / IC50: 48 h organ culture; for IC50: Rattus norvegicus, inhibition of S6c-induced contraction, read-out: pIC50 (based on the Emax for S6c) (converted)
Experimental: (§1) Rats were sedated with O2/CO2 (30/70%) and sacrificed by decapitation. Brains were gently removed and chilled in a cold oxygenated buffer solution of the following composition: 119 mM NaCl, 4.6 mM KCl, 1.5 mM CaCl2, 1.2 mM MgCl2, 1.2 mM NaH2PO4, 15 mM NaHCO3 and 5.5 mM Glucose; pH 7.4. The basilar artery (BA) was carefully dissected from the brain in a physiological buffer solution followed by either OC (naïve animals) or directly mounted in a wire myograph (arteries from rats which has undergone surgical procedures). Segments were incubated for 48 hours at 37° C. in humidified 5% CO2/O2 in DMEM supplemented with streptomycin and penicillin with inhibitors or vehicle (DMSO). Culture media was changed after 24 hours.
(§2) For contractility measurements, both incubated BAs (ex vivo) and BAs after surgical procedure (in vivo) were cut into segments and mounted on a pair of metal wires (40 μm) in a myograph bath. The arteries from OC were mounted the same way after 48 hours in media. One wire was attached to a micro-meter screw which allows for fine adjustments of the distance between the wires, controlling the vascular tone.
(§3) The segments were equilibrated in physiological buffer aerated with 95% O2/5% CO2, pH of 7.4, temperature set at 37° C. and the wires were separated for isometric pretension at 2 Nm^−1. The arterial segments were exposed two or three times with 60 mM K^+, by exchanging the buffer with a 60 mM K^+ buffer solution. To maintain equal osmolarity, a proportional amount of Na^+ had been removed from the buffer. An absolute cut-off was set at 2.0 mN K^+max for inclusion of arterial segments from rats that underwent the surgical procedure. Endothelium function was evaluated with the addition of 5-HT (3.10^−7 M) followed by carbachol (10^−5 M). For arteries from the OC the protocol was as followed: first a cumulative concentration-response curve to sarafotoxin 6C (S6c, 10^−14-10^−7 M), followed by a concentration-response curve to endothelin-1 (ET-1, 10^−14-10^−7 M). At peak ET-1 (10^−7 M), the buffer was changed to a Ca^2+-free buffer containing 10^−7 M ET-1 and nimodipine (L-type of voltage dependent Ca^2+ channel entry blocker, 10^−7 M). A concentration-response curve to Ca^2+ (0.0125-3 mM) was then performed. When vasodilation was investigated arteries was precontracted with U46619 (1.10^−7-3.10^−7 M) or K^+ (41 mM) and cumulative concentration-response curves was performed by adding calcitonin gene-related peptide (CGRP, 10^−12-10^−7 M), carbachol (10^−10-10^−5 M) or SNP (10^−11-10^−4 M).
(§4) Contractile responses of each segment were adjusted according to the length of the artery and are expressed as mN/mm (Nm^−1). […] To compare ET-1 sensitivity, arteries were normalized to the percentage of the individual vessel ET-1max. When the artery reached maximum contraction before the last concentration was added, the curves were constrained to the max contraction. The relative log IC50/log EC50 is the concentration corresponding to a response midway between the estimates of the lower and upper plateaus. The Emax is the maximal contraction in the concentration response curve and ET-1max is the maximal contraction to ET-1. All quantitative data is presented as mean±standard error of the mean (SEM), unless otherwise stated.

rat basilar arteries = assay: 48 h organ culture of basilar artery, endothelium function / vasodilation (carbachol, SNP, CGRP); assay type: cell-based; settings: 1 μM inhibitor; for endothelium function (10-5 M carbachol on arteries precontracted with 5-HT) vs DMSO: 48 h organ culture
Experimental: as §1, with “Brains were gently removed and chilled in a cold oxygenated buffer solution of the following composition: 119 mM NaCl, 4.6 mM KCl, 1.5 mM CaCl2, 1.2 mM MgCl2, 1.2 mM NaH2PO4, 15 mM NaHCO3 and 5.5 mM Glucose; pH 7.4.” left out
as §2
as §3, with “The” for “The segments were equilibrated in physiological buffer aerated with 95% O2/5% CO2, pH of 7.4, temperature set at 37° C. and the wires were separated for isometric pretension at 2 Nm^−1. The”, “A concentration-response curve to Ca^2+ (0.0125-3 mM) was then performed.” left out

[3] = test system: rat subarachnoid haemorrhage model; assay: Rat SAH model, intrathecal treatment, myograph of basilar arteries; assay type: in vivo
Experimental: as §2
as §3, with “The” for “The segments were equilibrated in physiological buffer aerated with 95% O2/5% CO2, pH of 7.4, temperature set at 37° C. and the wires were separated for isometric pretension at 2 Nm^−1. The”, “A concentration-response curve to Ca^2+ (0.0125-3 mM) was then performed.” left out
If there was only one curve above the cut-off, the concentration-response curve to ET-1 was prioritized. Segments with the highest K^+ response were generally allocated to the concentration-response curve to ET-1. […] The Ca^2+ free buffer solution had similar composition as above, but 1.5 mM CaCl2 was exchanged with 0.03 mM EDTA.
as §4
Rats were anesthetized and prepared for cisternal infusion of autologous blood, which simulates a SAH. Sham-operated rats went through the same procedure, omitting the intracisternal blood injection of 300 μL. At the end of the procedure, a PinPort (PNP3F22, Instech, US) was placed at the end of the ICP catheter to provide access for intrathecal (i.t.) injectable treatments by a PinPort injector (PNP-3M, Instech, US). 24 hours post-surgery, the rats received s.c. injections of Carprofen (Norodyl, 5 mg/kg) (Scanvet, Denmark) for analgesia.
The intrathecal (i.t.) treatment volumes were estimated for a cerebrospinal fluid (CSF) volume of approximately 90 μL (21) and the total dose was administered as three treatments (4 hours, 10 hours and 24 hours) through the PinPort in the ICP catheter placed in the cisterna magna during the surgical procedure. The first and third injections were given under fixation of the rat. […] Animals were given 2.5 ml isotonic saline s.c. to avoid dehydration, immediately after surgery and in conjunction with the 10 hours and 24 hours treatments.

Solubility (statement) = assay type: physicochemical
[4] = test system: rat basilar arteries (contractile ETB receptors); settings: cited from earlier work
[5] = test system: rat middle cerebral arteries (ETB receptor); settings: former studies, same in vitro setup; cited from earlier work

Molecule	inhibition of S6c-induced contraction (initial screening groups) [2]	IC50 [2] [nM]	endothelium function (10-5 M carbachol on arteries precontracted with 5-HT) vs DMSO (rat basilar arteries)	further results
CC(=O)[C@H]1CC[C@H]2[C@@H]3CCC4=CC(=O)CC[C@]4(C)[C@H]3CC[C@]12C [progesterone]				maximum contractile responses of occluded and non-occluded arteries to S6c, Ang II or 5-CT vs placebo ([1]; ovariectomized rats treated 3 weeks, tMCAO): not affected
O=C(c1ccc(F)c(F)c1Nc1ccc(I)cc1F)N1CC(O)([C@@H]2CCCCN2)C1 [Cobimetinib]	Highly effective	56.2		
O=C(NOC[C@H](O)CO)c1ccc(F)c(F)c1Nc1ccc(I)cc1F [PD0325901]	Highly effective; also recorded: almost completely inhibited	19.5	significant better endothelium function; also recorded: significant increase	Emax following NO donor sodium nitroprusside (SNP) (rat basilar arteries; 48 h OC): significant differences in the Emax; response to CGRP (rat basilar arteries; 48 h OC): No differences; vasodilation in response to carbachol (10^-10-10^-5 M) (rat basilar arteries; 48 h OC, precontracted with U46619 or K+): improved vasodilation; estimated inhibitor effect in the ex vivo OC study ([2]; at predicted CSF concentration of approximately 10^-7 M): ~75%; nimodipine insensitive ET-1max contraction ([3]; SAH + i.t. treatment, Ca2+ curve, 10^-7 M nimodipine): 1.0±0.3 Nm^−1; endothelium function ([3]; animals treated in vivo i.t. after SAH): No significant changes
COc1cc(F)c(F)c(Nc2ccc(I)cc2F)c1NS(=O)(=O)C1(C[C@H](O)CO)CC1 [Refametinib]	Borderline effective			
N#CC(=C(/N)Sc1ccccc1N)/C(C#N)=C(\N)Sc1ccccc1N [U0126]	Not effective; also recorded: no significant effect		poor endothelial response	solubility (Solubility (statement)): poor solubility; effect on ETB specific S6c-induced contractility ([4]; 10 μM, 48 hours OC, known from earlier work): inhibitory effect; established threshold for efficacy ([4]; used till date): 10 µM; concentration used for equivalent inhibition of ETB-receptor mediated contraction [5]: 10 µM
Cn1cnc2c(F)c(Nc3ccc(Br)cc3F)c(C(=O)NOCCO)cc21 [Binimetinib]	Some effect	6760		
CNS(=O)(=O)Nc1nccc(Cc2c(C)c3ccc(Oc4ncccn4)cc3oc2=O)c1F [RO5126766]	Some effect	2090		
NCCc1c[nH]c2ccc(C(N)=O)cc12 [5-CT, 5-carboxamidotryptamine]				agonist-mediated contraction (% of maximum potassium-mediated contraction) ([1]; intact females): 27±18%; agonist-mediated contraction (% of maximum potassium-mediated contraction) ([1]; ovariectomized females): 8±11%
Cn1c(=O)c(F)c(Nc2ccc(I)cc2F)c2c(=O)n(C[C@@H](O)CO)cnc21 [TAK-733]	Highly effective	129	significant better endothelium function; also recorded: significant increase	
sarafotoxin 6c [S6c]				agonist-mediated contraction (% of maximum potassium-mediated contraction) ([1]; intact females): 22±16%; agonist-mediated contraction (% of maximum potassium-mediated contraction) ([1]; ovariectomized females): 8±9%
